Assay results from ChEMBL document CHEMBL3244240, “Antitubercular 2,8-bis(alkylaminomethyl)phenazines” (1978).
Converted amounts (≈) assume the structure as drawn. The source made the active and inactive calls. The calls are words filed in the database; no cut-off is given here.

Tests used:
[1] = system: Mycolicibacterium smegmatis; assay: Antitubercular against Mycobacterium smegmatis ATCC 607 by agar dilution method; type: functional
[2] = system: Mycobacterium tuberculosis; assay: Antitubercular against Mycobacterium tuberculosis H37Rv infected in mouse assessed as host survival at 5 mg/kg/day administered with food for 19 days measured on day 30; type: functional, organism-based
[3] = system: Mycobacterium tuberculosis; assay: Antitubercular against Mycobacterium tuberculosis H37Rv infected in mouse assessed as host survival at 19 mg/kg/day administered with food for 19 days measured on day 30; type: functional, organism-based
[4] = system: Mycobacterium tuberculosis; assay: Antitubercular against Mycobacterium tuberculosis H37Rv infected in mouse assessed as host survival at 75 mg/kg/day administered with food for 19 days measured on day 30; type: functional, organism-based
[5] = system: Mycobacterium tuberculosis; assay: Antitubercular against Mycobacterium tuberculosis H37Rv infected in mouse assessed as host survival at 2.5 mg/kg/day administered with food for 19 days measured on day 30; type: functional, organism-based
[6] = system: Mycobacterium tuberculosis; assay: Antitubercular against Mycobacterium tuberculosis H37Rv infected in mouse assessed as host survival at 9 mg/kg/day administered with food for 19 days measured on day 30; type: functional, organism-based

SMILES	MIC [1]	other results
CCN(CC)Cc1ccc2nc3ccc(CN(CC)CC)cc3nc2c1.Cl	5 µg/mL	–
CCCCCCCN(CCCCCCC)Cc1ccc2nc3ccc(CN(CCCCCCC)CCCCCCC)cc3nc2c1	62 µg/mL (≈ 98.2 µM)	–
Cl.c1ccc(CN2CCN(Cc3ccc4nc5ccc(CN6CCN(Cc7ccccc7)CC6)cc5nc4c3)CC2)cc1	10 µg/mL	–
CCCCCCCCN(CCCCCCCC)Cc1ccc2nc3ccc(CN(CCCCCCCC)CCCCCCCC)cc3nc2c1	62 µg/mL (≈ 90.2 µM)	–
CCCCCCN(CCCCCC)Cc1ccc2nc3ccc(CN(CCCCCC)CCCCCC)cc3nc2c1	62 µg/mL (≈ 108 µM)	–
CCCCN(CCCC)Cc1ccc2nc3ccc(CN(CCCC)CCCC)cc3nc2c1.Cl	2.5 µg/mL	Activity [2]: inactive; Activity [3]: inactive; Activity [4]: Active
Cl.c1ccc(N2CCN(Cc3ccc4nc5ccc(CN6CCN(c7ccccn7)CC6)cc5nc4c3)CC2)nc1	125 µg/mL	–
CN1CCN(Cc2ccc3nc4ccc(CN5CCN(C)CC5)cc4nc3c2)CC1	62 µg/mL (≈ 153 µM)	–
NNC(=O)c1ccncc1 [ISONIAZID]	0.05 µg/mL (≈ 0.365 µM)	Activity [5]: inactive; Activity [6]: Active
c1cc2nc3ccc(CN4CCCCC4)cc3nc2cc1CN1CCCCC1	62 µg/mL (≈ 166 µM)	–
CCCCCN(CCCCC)Cc1ccc2nc3ccc(CN(CCCCC)CCCCC)cc3nc2c1	62 µg/mL (≈ 119 µM)	–
CC1CN(Cc2ccc3nc4ccc(CN5CC(C)NC(C)C5)cc4nc3c2)CC(C)N1.Cl (stereo not drawn)	62 µg/mL	–
CC[C@@H](CO)NCCN[C@@H](CC)CO [ETHAMBUTOL]	0.5 µg/mL (≈ 2.45 µM)	–
